Data: patent US20140030201A1, “A SKIN LIGHTENING COMPOSITION” (priority 2010, published 2014)
“And” between values parts separate entries of the source, which are not always exact repeats. Equal values may be shown once. Read-outs that look alike come from different tables or passages of the source. One block for each molecule: values may come before it.

Assays:
MelanoDerm™ cultures = assay: Histological analysis of MelanoDerm cultures (Masson-Fontana staining, MART-1 immuno-staining); details: 1 μM, 14 days, versus DMSO control
B16 mouse melanoma cells = assay: Melanogenesis in B16 monolayer cultures (melanin normalised to total protein); type: cell-based; details: for Normalised melanin: 72 hours; for Inhibition of melanin production (in words): B16 monolayer cultures
Protocol: B16 mouse melanoma cells were cultured in Eagle's minimal essential medium (EMEM) supplemented with 10% foetal calf serum (FCS) and 2 mM L-glutamine at 37° C., 5% CO2 in T175 tissue culture flasks and were sub-cultured twice weekly using trypsin in EDTA. For assay, 25 000 cells per well in 500 μl volume were seeded to a 48 well plate and adhered overnight. The following morning standard culture media was replaced by EMEM, 10% FCS, 4 mM L-glutamine (500 μl) and test actives added. Cells were then incubated for 72 hours. At 72 after which the supernatants were removed and analysed for melanin content by spectrophometry at 450 nm against a reference standard curve. The B16 cell monolayer was dissolved in Triton™/PBS at 4° C. for 20 minutes, centrifuged at 13 000 rpm for 5 minutes at 4° C. and analysed for total protein content using a standard bicinchoninic acid assay (BCA) assay against a reference standard curve. Melanin results were normalised to total protein.
Each test active was applied in DMSO to n=3 cultures.

[1] = In-vitro delivery of ketoconazole into human skin (diffusion cells, tape stripping); type: in vitro ADME
Protocol: This study quantified the in-vitro human skin penetration after application of a cream formulation containing 2% (w/w) ketoconazole (Daktarin™ Gold). Eight diffusion cells were prepared (using female abdominal skin from three donors) plus three undosed control cells (for assay validation purposes). Epidermal membranes were used and integrity assessed by measuring electrical resistance. Permeation of active was measured over 24 hours following application of a target 5 mg/cm2 dose. Suitable liquid chromatography analytical assays were developed, with active peaks separated from formulation, skin and tape strip derived peaks.
Distribution within the skin at 24 hours was determined by measuring the levels of active within the stratum corneum (tape strips) and the epidermis plus any remaining lower stratum corneum (following tape stripping). The skin was wiped prior to tape stripping to remove active remaining at the surface. Levels in the donor chamber sealing grease and on the donor chambers were also measured (donor chamber wash).

[2] = system: normal human melanocytes (NHM); assay: Growth and morphology of normal human melanocytes in monolayer culture (light microscopy); type: cell-based; details: 1 μM
Protocol: Primary human melanocytes were obtained from Invitrogen Cascade Biologics (HEMn-DP) and grown in Cascade melanocyte media (M-254CF-500+human melanocyte growth supplement (HMGS) supplement containing phorbol myristate acetate (PMA)) according to the manufacturer's instructions. Once established, cultures were routinely grown in T175 tissue culture flasks and could generally be passaged for use up to six (P6) or seven (P7) times. Once the cells reached about 70% confluence they were treated with trypsin, spun down and re-suspended in an appropriate volume of media ready for plating out. Cells seeded at 2×10^5 cells per well in a 6-well plate and incubated in 2 ml medium per well. Cells were allowed 16 hours to settle on the cover-slips before addition of treatments. Cells were treated for 5 days with DMSO vehicle or test actives dissolved in DMSO and light microscope images captured.
NHMs grown in monolayer cultures were treated with 1 μM ketoconazole for 5 days and assessed by light microscopy.

[3] = system: B16 F10 cells (mouse melanoma cell line); details: 3 days; for Average μg melanin/cell (4 tests): media control 0.00030445, DMSO control 0.00028774; for % vehicle control (melanin per cell): media control 100, DMSO control 94.51056836
Protocol: B16 F10 cells (mouse melanoma cell line) were obtained from ATCC and grown in Lonza Biowhittaker BE12-662F media. Trypsin in ethylenediaminetetraacetic acid (EDTA) (Sigma T3924) and Dulbecco's Phosphate Buffered Saline (DPBS) (Sigma D8537) were used to split the cells. Plates were set up at a concentration of 2.5×10^4 cells per well in 48 well plates in Phenol Red free media (Sigma D1145).
After overnight incubation, media was removed and media with sulforaphane (available from Sigma-Aldrich Company Limited as at least 95% L-sulforaphane) in DMSO and ketoconazole in DMSO solutions were added. 500 μl of the media and solutions were added to 4 wells of a 48 well plate and the plates incubated at 37° C. for a further 3 days. Thereafter the melanin concentration and cell numbers were measured.
Melanin concentration was measured by making up standards each day and pipetting 100 μl of each standard in duplicate onto Greiner plates. For the blank plate Phenol Red free media was used. 100 μl from each well was also pipetted in duplicate onto Greiner plates and the plates read on a Dynex plate reader at 450 nm.
Cell numbers were measured by washing the wells twice with phosphated buffer solution (PBS). Then 1 ml of trypsin EDTA diluted in PBS at 1:10 v/v was added to each well and the wells observed for cell detachment. All media from each well was then collected the media assayed by adding 100 μl of the media to 9.9 ml of Coulter Isoton II diluent. Cell numbers were assessed using the Z1 Coulter Particle Counter.

[4] = system: MelanoDerm™ cultures (pigmented 3D-Living Skin Equivalent model); assay: Melanogenesis in MelanoDerm cultures (extracted melanin normalised to protein)
B16 melanoma cells = details: cited from earlier work
[5] = cream with 2% (w/w) ketoconazole (Daktarin Gold), 5 mg/cm2, 24 hours, n = 8
[6] = stratum corneum tape strips, cream with 2% (w/w) ketoconazole, 5 mg/cm2, 24 hours, n = 8
[7] = 20 μM, individual cultures, second DMSO control 0.187, 0.188, 0.172

Ketoconazole (% recovered), Donor chamber [1, 5]: 4.00 ± 1.26 % recovered
Ketoconazole (% recovered), Overall recovery [1, 5]: 99.4 ± 1.2 % recovered
Ketoconazole (% recovered), Permeation chamber [1, 5]: 3.49 ± 0.26 % recovered
Ketoconazole (% recovered), Surface of skin [1, 5]: 83.6 ± 2.4 % recovered
Ketoconazole (% recovered), Epidermis ([1]; includes any stratum corneum remaining after tape stripping, cream with 2% (w/w) ketoconazole, 5 mg/cm2, 24 hours, n = 8): 2.02 ± 0.74 % recovered
Ketoconazole (% recovered), Strip 1 ([1]; stratum corneum tape strip, cream with 2% (w/w) ketoconazole, 5 mg/cm2, 24 hours, n = 8): 4.92 ± 2.03 % recovered
Ketoconazole (% recovered), Strips 2-3 [1, 6]: 0.858 ± 0.255 % recovered
Ketoconazole (% recovered), Strips 4-6 [1, 6]: 0.318 ± 0.062 % recovered
Ketoconazole (% recovered), Strips 7-10 [1, 6]: 0.192 ± 0.046 % recovered
Proportion of bipolar cells (normal cells) ([2]; 5 days, versus control, FIG. 3): practically identical to the control
SMILES: CC(=O)N1CCN(c2ccc(OC[C@H]3CO[C@](Cn4ccnc4)(c4ccc(Cl)cc4Cl)O3)cc2)CC1 (racemic) [ketoconazole]
Melanin content of the basal melanocytes, Masson-Fontana staining (MelanoDerm™ cultures; FIG. 1): marked effect on the melanin content of the basal melanocytes
Presence of melanocytes, MART-1 immuno-staining (MelanoDerm™ cultures; FIG. 2): not due to the elimination of melanocytes
Normalised melanin (B16 mouse melanoma cells; 5 μM, n=3 cultures, first DMSO control 0.186 ± 0.021): 0.173 ± 0.032 μg/mg protein
Normalised melanin (B16 mouse melanoma cells; 20 μM, n=3 cultures, first DMSO control 0.186 ± 0.021): 0.004 ± 0.001 μg/mg protein
Normalised melanin (B16 mouse melanoma cells; 50 μM, n=3 cultures, first DMSO control 0.186 ± 0.021): 0.007 ± 0.003 μg/mg protein
Inhibition of melanin production (in words) (B16 mouse melanoma cells; at 1 μM as printed): very effectively inhibits melanin production
Delivery into human skin (in words) ([1]; cream with 2% (w/w) ketoconazole, 24 hours): low but adequate delivery into human skin
Effect on viability of monolayer human melanocytes [2]: no detectable effect on the viability
Effect on NHM morphology or proliferation ([2]; 5 days, light microscopy, FIG. 3): no evidence that treatment had an adverse effect on NHM morphology or proliferation
Average μg melanin/cell (4 tests) ([3]; 1 μM): 0.0002916 μg melanin/cell
% vehicle control (melanin per cell) ([3]; 1 μM): 95.76 % vehicle control
Effect on viability of epidermal cultures ([4]; 1 μM): no detectable effect on the viability
Normalised melanin ([4]; 1 μM, 14 days, individual cultures, DMSO control 74.560, 103.845, 90.333): 58.573 μg/mg protein and 59.276 μg/mg protein and 57.292 μg/mg protein
Levels of extractable melanin (in words) ([4]; 1 μM, 14 days, versus DMSO control): consistently reduced the levels of extractable melanin
Inhibition of melanin production (in words) ([4]; MelanoDerm cultures, at 1 μM): very effectively inhibits melanin production

SMILES: C[S+]([O-])CCCCN=C=S [L-sulforaphane, sulforaphane]
Average μg melanin/cell (4 tests) ([3]; 10 μM): 0.0002645 μg melanin/cell
% vehicle control (melanin per cell) ([3]; 10 μM): 86.89 % vehicle control

SMILES: OC(Cn1cncn1)(Cn1cncn1)c1ccc(F)cc1F [flucoazole, fluconazole]
Normalised melanin (B16 mouse melanoma cells; [7]): 0.232 μg/mg protein and 0.214 μg/mg protein and 0.229 μg/mg protein
Inhibition of melanin production (in words) (B16 mouse melanoma cells; other azoles): did not effectively inhibit melanin production

SMILES: c1c[nH]cn1 [imidazole]
Normalised melanin (B16 mouse melanoma cells; [7]): 0.180 μg/mg protein and 0.231 μg/mg protein and 0.240 μg/mg protein
Inhibition of melanin production (in words) (B16 mouse melanoma cells; other azoles): did not effectively inhibit melanin production

SMILES: Clc1ccc(COC(Cn2ccnc2)c2ccc(Cl)cc2Cl)c(Cl)c1 (centres unmarked) [miconazole]
Cellular viability (B16 melanoma cells; accompanying the melanin decrease): decreased cellular viability
Melanin content (B16 melanoma cells; compared with untreated cells): dose dependently decreased
Tyrosinase activity (B16 melanoma cells; compared with untreated cells): dose dependently decreased

SMILES: c1cocn1 [oxazole]
Normalised melanin (B16 mouse melanoma cells; [7]): 0.217 μg/mg protein and 0.210 μg/mg protein and 0.185 μg/mg protein
Inhibition of melanin production (in words) (B16 mouse melanoma cells; other azoles): did not effectively inhibit melanin production

SMILES: c1cscn1 [thiazole]
Normalised melanin (B16 mouse melanoma cells; [7]): 0.228 μg/mg protein and 0.255 μg/mg protein and 0.236 μg/mg protein
Inhibition of melanin production (in words) (B16 mouse melanoma cells; other azoles): did not effectively inhibit melanin production
